Reference: ChEMBL document CHEMBL1201862, “PubChem BioAssay data set” (2004)
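Step 1: Grow cells in 96-well plates. Step 2: Expose to compound for 48 hours at 5 concentrations. Step 3: Interpolate endpoints linearly; if unreached, use highest concentration. At the GI50, growth is halved.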 Calls of active or inactive are those of the source. No stated cut-off is given here; in the data, active = GI50 up to about 1.1 µM and inactive = higher.

What was measured:
Assay in all cases: NCI-60 cell line screen, 48 h
SN12C = test system: SN12C
UACC-62 = test system: UACC-62
SNB-19 = test system: SNB-19
K562 = test system: K562
LOX IMVI = test system: LOX IMVI
HCT-116 = test system: HCT-116
OVCAR-3 = test system: OVCAR-3
OVCAR-8 = test system: OVCAR-8
IGROV-1 = test system: IGROV-1
EKVX = test system: EKVX
SF-268 = test system: SF-268
UACC-257 = test system: UACC-257
Malme-3M = test system: Malme-3M
OVCAR-5 = test system: OVCAR-5
SK-MEL-28 = test system: SK-MEL-28
CCRF-CEM = test system: CCRF-CEM
RPMI-8226 = test system: RPMI-8226
A498 = test system: A498

| SMILES | GI50 (SN12C) | GI50 (UACC-62) | GI50 (SNB-19) | GI50 (K562) | GI50 (LOX IMVI) | GI50 (HCT-116) | GI50 (OVCAR-3) | GI50 (OVCAR-8) | GI50 (IGROV-1) | GI50 (EKVX) | GI50 (SF-268) | GI50 (UACC-257) | GI50 (Malme-3M) | GI50 (OVCAR-5) | GI50 (SK-MEL-28) | GI50 (CCRF-CEM) | GI50 (RPMI-8226) | GI50 (A498) |
| --- | --- | --- | --- | --- | --- | --- | --- | --- | --- | --- | --- | --- | --- | --- | --- | --- | --- | --- |
| COC(OC)c1cccnc1C | > 100 µM (inactive) | > 100 µM (inactive) | > 100 µM (inactive) | > 100 µM (inactive) | > 100 µM (inactive) | > 100 µM (inactive) | > 100 µM (inactive) | > 100 µM (inactive) | > 100 µM (inactive) | > 100 µM (inactive) | > 100 µM (inactive) | > 100 µM (inactive) | > 100 µM (inactive) | > 100 µM (inactive) | > 100 µM (inactive) | > 100 µM (inactive) |  |  |
| CCN(CC)C(=O)Cc1c(C(=O)N(CC)CC)c(=O)nc2sccn12 | > 100 µM (inactive) | > 100 µM (inactive) | > 100 µM (inactive) | > 100 µM (inactive) | > 100 µM (inactive) | > 100 µM (inactive) | > 100 µM (inactive) | > 100 µM (inactive) | > 100 µM (inactive) | > 100 µM (inactive) | > 100 µM (inactive) | > 100 µM (inactive) | > 100 µM (inactive) |  | > 100 µM (inactive) | > 100 µM (inactive) | > 100 µM (inactive) | > 100 µM (inactive) |
| COC(=O)c1nc(N)nc(O)c1CCCCCc1c(O)nc(N)nc1C(=O)OC | > 50 µM (inactive) | > 50 µM (inactive) | > 50 µM (inactive) | > 50 µM (inactive) | > 50 µM (inactive) |  | > 50 µM (inactive) | > 50 µM (inactive) | > 50 µM (inactive) | > 50 µM (inactive) | > 50 µM (inactive) | > 50 µM (inactive) | > 50 µM (inactive) | > 50 µM (inactive) | > 50 µM (inactive) | > 50 µM (inactive) | > 50 µM (inactive) | > 50 µM (inactive) |
| Clc1ccc(Nc2nc3ccccc3nc2-c2cccs2)cc1Cl | 89.9 µM (inactive) | 38.5 µM (inactive) | 36 µM (inactive) |  |  | 23.4 µM (inactive) | > 100 µM (inactive) | 19.7 µM (inactive) |  | 69.5 µM (inactive) | 36.3 µM (inactive) | 34.4 µM (inactive) | > 100 µM (inactive) | > 100 µM (inactive) | 28.7 µM (inactive) | 27.2 µM (inactive) | 45.2 µM (inactive) |  |
| C=CCC1C(=O)CC2(C)C(CC=C)C(=O)CC12C (centres undefined) | > 100 µM (inactive) | > 100 µM (inactive) | > 100 µM (inactive) | > 100 µM (inactive) | > 100 µM (inactive) | > 100 µM (inactive) | > 100 µM (inactive) | > 100 µM (inactive) | > 100 µM (inactive) | > 100 µM (inactive) |  | > 100 µM (inactive) | > 100 µM (inactive) | > 100 µM (inactive) | > 100 µM (inactive) | > 100 µM (inactive) | > 100 µM (inactive) |  |
| NC1=NN(c2ccccc2)C(=O)C1C(=O)C(=O)Nc1ccc(Cl)c(Cl)c1 (centres undefined) | > 100 µM (inactive) | > 100 µM (inactive) | 1.06 µM (active) | 32 µM (inactive) |  | > 100 µM (inactive) | > 100 µM (inactive) | > 100 µM (inactive) | > 100 µM (inactive) | > 100 µM (inactive) | > 100 µM (inactive) | > 100 µM (inactive) | > 100 µM (inactive) | > 100 µM (inactive) | > 100 µM (inactive) | 96.4 µM (inactive) | > 100 µM (inactive) | > 100 µM (inactive) |
| CC1(c2ccccc2)CC(c2cccc([N+](=O)[O-])c2)=NO1 (centres undefined) | > 100 µM (inactive) |  |  |  |  | > 100 µM (inactive) | > 100 µM (inactive) | > 100 µM (inactive) | > 100 µM (inactive) |  | > 100 µM (inactive) | > 100 µM (inactive) | > 100 µM (inactive) | > 100 µM (inactive) | > 100 µM (inactive) |  | 51.3 µM (inactive) | > 100 µM (inactive) |
| O=Cc1c(O)ccc2ccc(O)c(-c3c(O)ccc4ccc(O)cc34)c12 | > 100 µM (inactive) | 77.8 µM (inactive) |  | > 100 µM (inactive) | > 100 µM (inactive) | > 100 µM (inactive) | 48.2 µM (inactive) | > 100 µM (inactive) | > 100 µM (inactive) |  | > 100 µM (inactive) | > 100 µM (inactive) | 37.5 µM (inactive) | > 100 µM (inactive) | > 100 µM (inactive) | 99.3 µM (inactive) | > 100 µM (inactive) | 43.2 µM (inactive) |
| COc1ccc2ccnc(Cc3ccc(OCc4ccccc4)c(OC)c3)c2c1 | 14.2 µM (inactive) |  | 85.9 µM (inactive) | 31 µM (inactive) |  | 16.1 µM (inactive) | 17.1 µM (inactive) | 19.1 µM (inactive) |  | 17.9 µM (inactive) | 22.1 µM (inactive) | 20.8 µM (inactive) | 16.9 µM (inactive) | 40.3 µM (inactive) | 16.7 µM (inactive) | 27.4 µM (inactive) | 16.2 µM (inactive) | 21.8 µM (inactive) |
| COc1cc(C(CC(OC)OC)=C(C#N)C#N)cc(OC)c1OC | 29.2 µM (inactive) | 26.7 µM (inactive) | 39.5 µM (inactive) |  | 10.5 µM (inactive) | 18.2 µM (inactive) | 34.3 µM (inactive) | 20 µM (inactive) | 39.4 µM (inactive) | 34.9 µM (inactive) | 41.6 µM (inactive) | 18 µM (inactive) | 26.1 µM (inactive) | > 100 µM (inactive) | 36.3 µM (inactive) | 5.36 µM (inactive) |  | 8.13 µM (inactive) |
| C/C(CC(=O)Nc1cc(Cl)c(Cl)cc1Cl)=N\NS(=O)(=O)c1ccc(C)cc1 |  | 26.5 µM (inactive) |  | 35.5 µM (inactive) | 39.3 µM (inactive) | 23 µM (inactive) | 25.5 µM (inactive) | 39.3 µM (inactive) | 37.4 µM (inactive) | 35.3 µM (inactive) | 29.3 µM (inactive) | 26 µM (inactive) | 31.2 µM (inactive) | 53.8 µM (inactive) | 34.2 µM (inactive) | 27.5 µM (inactive) | 27.4 µM (inactive) | 53.6 µM (inactive) |
| CS(=O)(=O)OCCN1CCN(C(=O)c2ccc(Cl)c3c(Nc4ccc(S(=O)(=O)N=C(N)N)cc4)c4ccccc4nc23)CC1 | > 100 µM (inactive) | > 100 µM (inactive) | > 100 µM (inactive) | > 100 µM (inactive) |  | > 100 µM (inactive) | > 100 µM (inactive) | > 100 µM (inactive) | > 100 µM (inactive) |  | > 100 µM (inactive) | > 100 µM (inactive) | > 100 µM (inactive) | > 100 µM (inactive) | > 100 µM (inactive) | > 100 µM (inactive) | > 100 µM (inactive) | > 100 µM (inactive) |
| C=Cc1ccc(C)[n+](C[Si](C)(C)O[Si](C)(C)C)c1 | > 100 µM (inactive) | > 100 µM (inactive) | > 100 µM (inactive) | > 100 µM (inactive) | > 100 µM (inactive) | > 100 µM (inactive) | > 100 µM (inactive) | > 100 µM (inactive) | > 100 µM (inactive) | > 100 µM (inactive) | > 100 µM (inactive) | > 100 µM (inactive) | > 100 µM (inactive) | > 100 µM (inactive) | > 100 µM (inactive) | > 100 µM (inactive) | > 100 µM (inactive) |  |
| CCn1c2ccccc2c2ccc3c(c21)C(=O)C=CC3=O | 18.2 µM (inactive) |  |  | 2.29 µM (inactive) |  | 4.47 µM (inactive) | 13.5 µM (inactive) | 13.7 µM (inactive) | 1.39 µM (inactive) | 12.1 µM (inactive) | 19.9 µM (inactive) | 14.6 µM (inactive) | 9.86 µM (inactive) | 21.5 µM (inactive) | 18.3 µM (inactive) | 0.375 µM (active) | 10.3 µM (inactive) |  |
| CCOC(=O)C1(CC)CCCCC(=O)N1 (centres undefined) | > 100 µM (inactive) | > 100 µM (inactive) |  | > 100 µM (inactive) | > 100 µM (inactive) |  | > 100 µM (inactive) | > 100 µM (inactive) | > 100 µM (inactive) | > 100 µM (inactive) | > 100 µM (inactive) |  | > 100 µM (inactive) |  | > 100 µM (inactive) | > 100 µM (inactive) |  |  |
| c1ccc2c(NCCCCCCNc3cccc4ccccc34)cccc2c1 | > 100 µM (inactive) | 64.6 µM (inactive) | > 100 µM (inactive) | > 100 µM (inactive) |  | > 100 µM (inactive) | > 100 µM (inactive) | > 100 µM (inactive) | > 100 µM (inactive) | > 100 µM (inactive) | > 100 µM (inactive) | > 100 µM (inactive) | > 100 µM (inactive) | > 100 µM (inactive) | > 100 µM (inactive) | 38.8 µM (inactive) | 87.3 µM (inactive) | > 100 µM (inactive) |
| O=[N+]([O-])c1cccc(C(O)/C(=N/O)c2nc3ccc(Cl)cc3nc2O)c1 (centres undefined) | > 100 µM (inactive) | > 100 µM (inactive) | > 100 µM (inactive) | > 100 µM (inactive) | > 100 µM (inactive) | > 100 µM (inactive) | > 100 µM (inactive) | > 100 µM (inactive) | > 100 µM (inactive) | > 100 µM (inactive) |  | > 100 µM (inactive) | > 100 µM (inactive) | > 100 µM (inactive) | > 100 µM (inactive) | > 100 µM (inactive) | > 100 µM (inactive) |  |
